Assay results taken from patent publication US10238658B2, “1-pyrazolyl-3-(4-((2-anilinopyrimidin-4-yl) oxy) napththalen-1-yl) ureas as p38 MAP kinase inhibitors” (Respivert Limited, priority 2011, dated 2019).

Legend:
PBMC = assay: Cell mitosis assay; type: cell-based; conditions: Homo sapiens; for inhibition at 5 µg/mL: read-out: Mitosis Assay % inhibition in PBMC Cells at concn 5 μg/mL
Summary of the method: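 PBMCs from healthy donors, stimulated 48 hr with 2% PHA, then exposed 20 hr to test compounds; demecolcine 0.1 μg/mL added 2 hr before harvest for metaphase arrest. Cells fixed/permeabilised, stained with anti-phospho-histone 3 and propidium iodide; mitotic cells counted by flow cytometry gated on lymphocytes.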

TNFα [1] = assay: LPS-induced TNFα release in d-U937 cells; type: cell-based; conditions: Homo sapiens, dU937, dU937 cells; relative to 10 μg/mL BIRB796; read-out: LPS Induced Release TNFα REC50 (dU937)
Summary of the method: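 U937 cells differentiated with PMA (100 ng/mL, 48–72 hr) were pre-incubated with compound for 2 hr, then stimulated with E. coli O111:B4 LPS (0.1 μg/mL) for 4 hr. Supernatant cytokine measured by sandwich ELISA; inhibition vs vehicle control at each concentration, REC50 taken from the concentration-response curve.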

IL-8 = assay: Rhinovirus-induced IL-8 release in BEAS2B cells; type: cell-based; conditions: Homo sapiens, BEAS-2B
Summary of the method: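 BEAS2B cells infected with HRV RV16 at MOI 5 for 2 h at 33 °C, washed, then cultured 72 h; compounds given 2 h before infection and again after washout. IL-8 measured in supernatant by ELISA; surface ICAM-1 by cell-based ELISA (OD450–655), normalised to crystal violet cell count (OD595).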

RSV A2 = assay: In vitro RSV virus load (F-protein ELISA) in primary bronchial epithelial cells; type: cell-based, respiratory syncytical virus; conditions: human respiratory syncytial virus, Primary bronchial epithelial cell; for inhibition at 0.04 µg/mL: at 0.04 μg/mL, read-out: RSV (F-Elisa) (HBEC) % inhibition
Experimental: Normal human bronchial epithelial cells (NHBEC) grown in 96 well plates were infected with RSV A2 (Strain A2, HFA, Salisbury, UK) at an MOI of 0.001 in the LHC8 Media:RPMI-1640 (50:50) containing 15 mM magnesium chloride and incubated for 1 hr at 37° C. for adsorption. The cells were then washed with PBS (3×200 μL), fresh media (200 μL) was added and incubation continued for 4 days. Where appropriate, cells were pre-incubated with the compound or DMSO for 2 hr, and then added again after washout of the virus.
The cells were fixed with 4% formaldehyde in PBS solution (50 μL) for 20 min, washed with washing buffer (3×200 μL; PBS including 0.5% BSA and 0.05% Tween-20) and incubated with blocking solution (5% condensed milk in PBS) for 1 hr. Cells were then washed with washing buffer (3×200 μL) and incubated for 1 hr at RT with anti-RSV (2F7) F-fusion protein antibody (40 μL; mouse monoclonal, lot 798760, Cat. No. ab43812, Abcam) in 5% BSA in PBS-tween). After washing, cells were incubated with an HRP-conjugated secondary antibody solution (50 μL) in 5% BSA in PBS-Tween (lot 00053170, Cat.No. P0447, Dako) and then TMB substrate (50 μL; substrate reagent pack, lot 269472, Cat. No. DY999, R&D Systems, Inc.) was added. This reaction was stopped by the addition of 2N H2SO4 (50 μL) and the resultant signal was determined colorimetrically (OD: 450 nm with a reference wavelength of 655 nm) in a microplate reader (Varioskan® Flash, ThermoFisher Scientific).
After washing with washing buffer, 1% SDS in distilled water (100 μL) was added to each well, and plates were shaken lightly on the shaker for 1 hr prior to reading the absorbance at 595 nm. The measured OD450-655 readings were corrected to the cell number by dividing the OD450-655 by the OD595 readings. The percentage inhibition for each well was calculated and the IC50 value was calculated from the concentration-response curve generated from the serial dilutions of compound.

TNFα [2] = assay: LPS-induced TNFα release in THP-1 cells; type: cell-based; conditions: Homo sapiens, THP-1, THP1 cells
Experimental: THP-1 cells, a human monocytic cell line, were stimulated with 3 μg/mL of LPS (from E. Coli; 0111:B4, Sigma) for 4 hr and the supernatant collected for determination of the TNFα concentration by sandwich ELISA (Duo-set, R&D systems). The inhibition of TNFα production was calculated at each concentration by comparison with vehicle control.

HRV16 = HRV16 induced CPE in MRC5 cells; type: cell-based; conditions: Human rhinovirus sp.; for inhibition at 0.04 µg/mL: HRV16, MRC5, at 0.04 μg/mL, read-out: HRV CPE (MRC5) % inhibition
Experimental: The supernatants were aspirated, and then fresh media added followed by incubation for 4 days. Where appropriate, cells were pre-incubated with compound or DMSO for 2 hr, and the compounds and DMSO added again after washout of the virus.
The percentage inhibition for each well was calculated. The IC50 value was calculated from the concentration-response curve generated by the serial dilutions of the test compounds.

| SMILES | inhibition at 1 µg/mL (PBMC; read-out: Mitosis Assay % inhibition in PBMC Cells at concn 1 μg/mL) [%] | inhibition at 5 µg/mL (PBMC) [%] | EC50 (TNFα [1]) [nM] | IC50 (IL-8; BEAS2B cells, HRV-16) [nM] | inhibition at 0.04 µg/mL (RSV A2) [%] | IC50 (RSV A2; read-out: RSV (F-Elisa) (HBEC) IC50) [nM] | IC50 (TNFα [2]) [nM] | inhibition at 0.04 µg/mL (HRV16) [%] | IC50 (HRV16; HRV16, MRC5 cells, HRV-16) [nM] | inhibition at 0.04 µg/mL (IL-8; at 0.04 μg/mL, read-out: HRV IL-8 (BEAS2B) % inhibition) [%] |
| --- | --- | --- | --- | --- | --- | --- | --- | --- | --- | --- |
| Cc1ccc(-n2nc(C(C)(C)C)cc2NC(=O)Nc2ccc(Oc3ccnc(Nc4ccccc4)n3)c3ccccc23)cc1 [Example 1, 1-(3-(tert-Butyl)-1-(p-tolyl)-1H-pyrazol-5-yl)-3-(4-(2-(phenylamino)pyrimidin-4-yloxy)naphthalen-1-yl)urea] | 13.7 | 31.3 | 2.3 | 0.036 | 85 | 15.4 | 3.4 | 57 | 17.1 | – |
| Cc1ccc(-n2nc(C(C)(C)C)cc2NC(=O)Nc2ccc(Oc3ccnc(Nc4cccc(O)c4)n3)c3ccccc23)cc1 [Example 2, 1-(3-(tert-Butyl)-1-(p-tolyl)-1H-pyrazol-5-yl)-3-(4-((2-((3-hydroxyphenyl)amino)pyrimidin-4-yl)oxy)naphthalen-1-yl)urea] | – | 70.6 | 2.4 | – | 42 | – | 2.8 | 5 | – | 100 |
